# Columns and labels:
# [1] = system: L1210 intraperitoneal tumor; experiment: L1210 i.p. tumor model in mice (survival and toxic deaths); type: in vivo, mice (DBA2)
# Experimental: The data in Table 3 is expressed as the ratio of the mean survival time of treated animals to the mean survival time of the untreated control animals×100 (T/C).
# 10^6 viable cells were administered to DBA2 mice (male 9-12 weeks, 20-30 g) i.p. on day 0. […] Animals were weighed daily and observed twice a day for signs of tumor progression and sacrificed if their body weight fell below 80% of the starting weight or if other severe toxicological problems were seen. At the end of the experiment changes in gross anatomy were noted.
# COR-L23 cells = experiment: In vitro cytotoxicity (MTT assay), COR-L23; type: cell-based; details: 50% decrease in cell viability
# Experimental: (§1) The in vitro cytotoxicity of the polyamidoamine-platinum compounds was evaluated using the MTT assay described above and in Example 5.
# (§2) The cell lines used, L132 (human embryonic lung cells), COR L23 (non-small cell lung cancer cells) and H69 (small cell lung cancer), were obtained from European Collection of Cell Cultures, Centre for Applied Biology, Microbiology and Research, Salisbury, Wiltshire UK.
# (§3) Cells were cultured using standard conditions in microtitre plates.
# [2] = system: B16 melanoma intraperitoneal tumor; experiment: B16 melanoma i.p. tumor model in mice (survival, toxic deaths, body weight); type: in vivo, mice (C57BL/6J); details: single i.p. dose
# Text: Male C57BL/6J mice were inoculated with 10^6 viable B16F10 cells intraperitoneally (i.p). […] Animals were monitored as described above.
# H69 cells = experiment: In vitro cytotoxicity (MTT assay), H69 small cell lung carcinoma; type: cell-based; details: 50% decrease in cell viability
# Experimental: as §1, §2, §3
# [3] = background; cited from earlier work
# L132 cells = experiment: In vitro cytotoxicity (MTT assay), L132; type: cell-based, human; details: 50% decrease in cell viability
# Experimental: as §1, §2, §3
smiles,measurement,setting,value
"N.N.[Cl][Pt][Cl] [Cisplatin, Cis-diamminedichloroplatinum(II)]",T/C (mean survival time treated/control × 100),[1]; 2 mg/kg Pt,171
same,T/C (mean survival time treated/control × 100),[1]; 3 mg/kg Pt,64
same,"IC50, COR-L23",COR-L23 cells,7.38 ± 2.78 µg/mL
same,T/C,[2]; 5 mg/kg Pt,134
same,T/C,[2]; 10 mg/kg Pt,78
same,"IC50, H-69",H69 cells,45.9 ± 20 µg/mL
same,"excretion, in words",[3],rapid excretion via the kidneys
same,"IC50, L132",L132 cells,4.80 ± 1.29 µg/mL

# From patent publication US5985916A, “Polymer-platinum compounds” (Access Pharmaceuticals, Inc., priority 1998, dated 1999)
